Experimental data taken from ChEMBL document CHEMBL3792292, “Development of a potent and selective FLT3 kinase inhibitor by systematic expansion of a non-selective fragment-screening hit” (Bioorg Med Chem Lett, 2016).

Target: T1, Receptor-type tyrosine-protein kinase FLT3 (Homo sapiens, UniProt P36888)
T1 sequence (P36888 whole entry): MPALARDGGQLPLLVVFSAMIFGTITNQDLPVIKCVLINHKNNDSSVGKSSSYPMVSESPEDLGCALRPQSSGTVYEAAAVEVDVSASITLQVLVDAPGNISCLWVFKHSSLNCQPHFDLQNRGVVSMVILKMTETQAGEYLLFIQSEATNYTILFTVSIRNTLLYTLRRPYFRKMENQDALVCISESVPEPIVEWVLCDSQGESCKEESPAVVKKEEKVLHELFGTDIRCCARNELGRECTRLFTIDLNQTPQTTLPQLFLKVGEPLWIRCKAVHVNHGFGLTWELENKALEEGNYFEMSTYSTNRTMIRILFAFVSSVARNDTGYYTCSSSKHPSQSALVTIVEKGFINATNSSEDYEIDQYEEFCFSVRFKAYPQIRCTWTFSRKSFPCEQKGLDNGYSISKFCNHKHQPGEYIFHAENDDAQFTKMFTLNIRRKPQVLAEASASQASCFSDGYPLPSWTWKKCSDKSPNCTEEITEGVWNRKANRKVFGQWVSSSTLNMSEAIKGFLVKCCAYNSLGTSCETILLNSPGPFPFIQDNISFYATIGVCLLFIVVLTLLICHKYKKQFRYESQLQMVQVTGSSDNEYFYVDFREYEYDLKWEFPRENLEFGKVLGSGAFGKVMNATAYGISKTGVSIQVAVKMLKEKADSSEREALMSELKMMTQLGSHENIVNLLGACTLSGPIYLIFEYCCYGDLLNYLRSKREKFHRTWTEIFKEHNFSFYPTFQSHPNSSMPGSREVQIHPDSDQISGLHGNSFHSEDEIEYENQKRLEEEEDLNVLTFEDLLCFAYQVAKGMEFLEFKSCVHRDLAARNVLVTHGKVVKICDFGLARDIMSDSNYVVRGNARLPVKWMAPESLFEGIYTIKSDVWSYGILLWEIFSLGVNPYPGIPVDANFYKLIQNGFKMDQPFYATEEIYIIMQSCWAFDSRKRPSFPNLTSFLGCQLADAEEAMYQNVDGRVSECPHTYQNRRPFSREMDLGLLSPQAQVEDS
Experiment: Inhibition of human N-terminal GST-tagged FLT3 cytoplasmic domain (564 to 993 residues) expressed in baculovirus expression system using 5-FAM-peptide 2 as substrate after 2 hrs by electrophoretic mobility shift assay in presence of ATP

Row | IC50 [nM] | SMILES
1 | > 2000 | COC(=O)c1ccccc1NC(=O)c1n[nH]c2ccccc12
2 | > 2000 | COc1ccccc1NC(=O)c1n[nH]c2ccccc12
3 | 352 | COc1ccc(NC(=O)c2n[nH]c3ccccc23)cc1
4 | > 2000 | COC(=O)c1cccc(NC(=O)c2n[nH]c3ccccc23)c1

Second part, the compound before the results:

Row | SMILES | IC50 [nM]
5 | Cc1ccccc1NC(=O)c1n[nH]c2ccccc12 | > 2000
6 | Cn1nc(C(=O)Nc2ccccc2)c2ccccc21 | > 2000
7 | O=C(Nc1ccccc1)c1c[nH]c2ccccc12 | > 2000
8 | O=C(Nc1ccc(N2CCN(c3ccccc3)CC2)cc1)c1n[nH]c2ccccc12 | > 2000
9 | CN(C(=O)c1n[nH]c2ccccc12)c1ccccc1 | > 2000
